According to US10259810B2, “N-sulfonylated pyrazolo[3,4-b]pyridin-6-carboxamides and method of use” (AbbVie S.à.r.l., priority 2015, dated 2019):

Assays:
[1] = molecular target: T1, ΔF508-CFTR (Homo sapiens, UniProt P13569, DEL508-508); test: CFTR cell surface levels using HRP-tagged ΔF508-CFTR expressing CFBE cells, in the presence of a co-corrector; assay type: cell-based; conditions: HRP-tagged ΔF508-CFTR CFBE cells, in the presence of 3 μM co-corrector; for EC50: read-out: EC50
T1 construct: host or cells: CFBE41o-, doxycycline-inducible
Outline: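 Chemiluminescent read-out of surface HRP (15 min, dark) after PBS washes. Activity is normalized as 100×(sample−DMSO)/(3 μM co-corrector alone−DMSO).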

[2] = molecular target: T1, ΔF508-CFTR; test: CFTR cell surface levels using HRP-tagged ΔF508-CFTR expressing CFBE cells, intrinsic corrector capacity; assay type: cell-based; parameters: % Activation: concentration or dose not given beside the values; conditions: HRP-tagged ΔF508-CFTR expressing CFBE41o- cells, compound alone (intrinsic corrector capacity), 20 hours at 33° C.; for EC50: read-out: EC50
Outline: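 Read-out: chemiluminescent HRP activity of ECL4-HRP-tagged ΔF508-CFTR at the cell surface, 15 min substrate in dark. Normalized as 100×(sample−DMSO)/(positive control−DMSO).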

T1 sequence (P13569 with tags, fused parts or gaps DEL508-508): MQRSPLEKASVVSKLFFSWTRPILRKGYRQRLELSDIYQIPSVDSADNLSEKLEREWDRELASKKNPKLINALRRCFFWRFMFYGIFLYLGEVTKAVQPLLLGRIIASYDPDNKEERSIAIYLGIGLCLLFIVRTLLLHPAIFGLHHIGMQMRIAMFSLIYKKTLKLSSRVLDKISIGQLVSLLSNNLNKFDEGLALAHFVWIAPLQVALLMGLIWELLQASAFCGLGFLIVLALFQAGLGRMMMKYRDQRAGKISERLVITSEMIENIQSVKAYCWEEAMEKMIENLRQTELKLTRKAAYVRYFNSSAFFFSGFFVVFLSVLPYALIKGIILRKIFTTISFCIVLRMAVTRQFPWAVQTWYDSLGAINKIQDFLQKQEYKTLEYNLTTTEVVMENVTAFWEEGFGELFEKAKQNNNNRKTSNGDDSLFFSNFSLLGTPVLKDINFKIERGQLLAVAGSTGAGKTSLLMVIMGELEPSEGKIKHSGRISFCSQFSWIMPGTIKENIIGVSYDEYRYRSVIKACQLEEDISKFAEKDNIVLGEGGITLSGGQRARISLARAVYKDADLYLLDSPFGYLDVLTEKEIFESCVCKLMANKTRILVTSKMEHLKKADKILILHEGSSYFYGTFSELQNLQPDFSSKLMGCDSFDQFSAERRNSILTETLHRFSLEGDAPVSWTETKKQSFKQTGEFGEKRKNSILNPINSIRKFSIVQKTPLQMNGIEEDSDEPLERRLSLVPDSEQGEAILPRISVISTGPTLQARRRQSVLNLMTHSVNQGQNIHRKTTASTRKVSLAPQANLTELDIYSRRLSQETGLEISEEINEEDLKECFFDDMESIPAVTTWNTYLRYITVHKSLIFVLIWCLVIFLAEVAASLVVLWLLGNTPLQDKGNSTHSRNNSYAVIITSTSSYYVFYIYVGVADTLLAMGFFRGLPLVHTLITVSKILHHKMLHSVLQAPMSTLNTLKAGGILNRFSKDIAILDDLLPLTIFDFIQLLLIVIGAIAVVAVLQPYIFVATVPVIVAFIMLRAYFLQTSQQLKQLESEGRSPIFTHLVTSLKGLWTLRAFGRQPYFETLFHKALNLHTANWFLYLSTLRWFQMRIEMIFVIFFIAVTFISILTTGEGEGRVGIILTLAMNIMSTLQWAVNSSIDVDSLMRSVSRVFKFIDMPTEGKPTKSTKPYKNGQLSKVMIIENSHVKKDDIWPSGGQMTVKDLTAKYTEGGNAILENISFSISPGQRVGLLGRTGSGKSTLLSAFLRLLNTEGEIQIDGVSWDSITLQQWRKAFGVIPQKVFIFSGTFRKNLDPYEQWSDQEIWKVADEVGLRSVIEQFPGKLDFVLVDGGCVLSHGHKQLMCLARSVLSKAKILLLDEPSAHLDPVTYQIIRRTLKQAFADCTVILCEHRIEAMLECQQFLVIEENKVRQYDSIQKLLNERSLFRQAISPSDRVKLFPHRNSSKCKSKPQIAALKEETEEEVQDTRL

With `COCC1CCN(c2cc(C(=O)NS(=O)(=O)CCCN(C)C)nc3c2c(C(C)C)nn3-c2ccc(F)cc2)CC1` [Compound 290, N-[3-(dimethylamino)propane-1-sulfonyl]-1-(4-fluorophenyl)-4-[4-(methoxymethyl)piperidin-1-yl]-3-(propan-2-yl)-1H-pyrazolo[3,4-b]pyridine-6-carboxamide] the “% Activation” value [1] was 382.2%, the EC50 [1] was 536 nM and the “% Activation” value [2] was 200.4%. It also gave an EC50 [2] of 617 nM.
In the case of `COCCC1CCN(c2cc(C(=O)NS(C)(=O)=O)nc3c2c(C2CCC2)nn3-c2ccccc2)CC1` [Compound 183, 3-cyclobutyl-N-(methanesulfonyl)-4-[4-(2-methoxyethyl)piperidin-1-yl]-1-phenyl-1H-pyrazolo[3,4-b]pyridine-6-carboxamide], the “% Activation” value [1] is reported as 498.57%, the EC50 [1] is reported as 214 nM and the “% Activation” value [2] is reported as 302%. The EC50 [2] was 389 nM.
In the case of `CC(C)c1nn(-c2cccc(N(C)C)c2)c2nc(C(=O)NS(C)(=O)=O)cc(OCC3CCOCC3)c12` [Compound 278, 1-[3-(dimethylamino)phenyl]-N-(methanesulfonyl)-4-[(oxan-4-yl)methoxy]-3-(propan-2-yl)-1H-pyrazolo[3,4-b]pyridine-6-carboxamide], the “% Activation” value [1] is reported as 388.5%, the EC50 [1] is reported as 88.3 nM and the “% Activation” value [2] is reported as 233.7%. It also gave an EC50 [2] of 120 nM.
`CC1(S(=O)(=O)NC(=O)c2cc(N3CCC(N4CCN(C5CC5)CC4)CC3)c3c(C4CCC4)nn(-c4ccccc4)c3n2)CC1` [Compound 557, 3-cyclobutyl-4-[4-(4-cyclopropylpiperazin-1-yl)piperidin-1-yl]-N-(1-methylcyclopropane-1-sulfonyl)-1-phenyl-1H-pyrazolo[3,4-b]pyridine-6-carboxamide] was tested, and the “% Activation” value [1] was 474.4%, the EC50 [1] was 116 nM and the “% Activation” value [2] was 248.5%. The EC50 [2] was 252 nM.
In the case of `CCN1CCN(Cc2ccc(-c3cc(C(=O)NS(C)(=O)=O)nc4c3c(OC(C)C)nn4C3CCCCC3)cc2)CC1` [Compound 642, 1-cyclohexyl-4-{4-[(4-ethylpiperazin-1-yl)methyl]phenyl}-N-(methanesulfonyl)-3-[(propan-2-yl)oxy]-1H-pyrazolo[3,4-b]pyridine-6-carboxamide], the “% Activation” value [1] is reported as 430.9%, the EC50 [1] is reported as 97.3 nM and the “% Activation” value [2] is reported as 222%. The EC50 [2] was 235 nM.
With `CC(C)N1CCN(C2CCN(c3cc(C(=O)NS(=O)(=O)N4CCC4)nc4c3c(C3CCC3)nn4-c3ccc(F)cc3)CC2)CC1` [Compound 651, N-(azetidine-1-sulfonyl)-3-cyclobutyl-1-(4-fluorophenyl)-4-{4-[4-(propan-2-yl)piperazin-1-yl]piperidin-1-yl}-1H-pyrazolo[3,4-b]pyridine-6-carboxamide] the “% Activation” value [1] was 532.4%, the EC50 [1] was 128 nM and the “% Activation” value [2] was 317.85%. The EC50 [2] was 206 nM.
With `CN(C)S(=O)(=O)NC(=O)c1cc(C2CCN(CC3CC3)CC2)c2c(C3CCC3)nn(-c3ccc(F)cc3)c2n1` [Compound 613, 3-cyclobutyl-4-[1-(cyclopropylmethyl)piperidin-4-yl]-N-(dimethylsulfamoyl)-1-(4-fluorophenyl)-1H-pyrazolo[3,4-b]pyridine-6-carboxamide] the “% Activation” value [1] was 152.9%, the EC50 [1] was no less than 10000 nM and the “% Activation” value [2] was 30.09%.
In the case of `CN(C)S(=O)(=O)NC(=O)c1cc(-c2ccc(CN3CCOCC3)cc2)c2c(C3CCC3)nn(C3CCCCC3)c2n1` [Compound 475, 3-cyclobutyl-1-cyclohexyl-N-(dimethylsulfamoyl)-4-{4-[(morpholin-4-yl)methyl]phenyl}-1H-pyrazolo[3,4-b]pyridine-6-carboxamide], the “% Activation” value [1] is reported as 289.95%, the EC50 [1] is reported as 112 nM and the “% Activation” value [2] is reported as 140.1%. The EC50 [2] was 179 nM.
In the case of `COCCS(=O)(=O)NC(=O)c1cc(N2CCC(COC)CC2)c2c(C3CCC3)nn(-c3ccccc3)c2n1` [Compound 256, 3-cyclobutyl-N-(2-methoxyethanesulfonyl)-4-[4-(methoxymethyl)piperidin-1-yl]-1-phenyl-1H-pyrazolo[3,4-b]pyridine-6-carboxamide], the “% Activation” value [1] is reported as 508.63% and the “% Activation” value [2] is reported as 331.85%.
